Patent publication US11400107B2, “Cancer treatments” (NuCana plc, priority 2016, dated 2022)
“Also recorded” adds a separate entry of the source.

System: Lin^−/CD34^+/CD38^−/CD123^+ cancer stem cells in KG1a cells
Test: Immunophenotypic quantification of the leukaemic stem cell compartment in KG1a cells
Assay type: cell-based, human
Settings: KG1a cells
Method: The respective abilities of NUC-1031 and gemcitabine to target CSCs were investigated in the AML cell line KG1a.
KG1a cells were cultured for 72 hours in the presence of a wide range of concentrations of each nucleoside analogue and their respective ProTides. Cells were then harvested and labelled with a cocktail of anti-lineage antibodies (PE-cy7), anti-CD34 (FITC), anti-CD38 (PE) and anti-CD123 (PERCP cy5). The sub-population expressing a leukaemic stem cell (LSC) phenotype were subsequently identified and were expressed as a percentage of all viable cells left in the culture. The percentages of stem cells remaining were then plotted on a dose-response graph and the proportion of cancer stem cells was compared across the various concentrations of ProTides and their respective parent compounds, in order to determine if they preferentially target cancer stem cells.
The data obtained in these experiments were evaluated using one way ANOVA. All data was confirmed as Gaussian or a Gaussian approximation using the omnibus K2 test. LD50 values were calculated from the non-linear regression and line of best-fit analysis of the sigmoidal dose-response curves. All statistical analyses were performed using Graphpad Prism 6.0 software (Graphpad Software Inc., San Diego, Calif.).

## C[C@H](NP(=O)(OC[C@H]1O[C@@H](n2ccc(N)nc2=O)C(F)(F)[C@@H]1O)Oc1ccccc1)C(=O)OCc1ccccc1 (stereo partly drawn) [NUC-1031, 2′-deoxy-2′,2′-difluoro-D-cytidine-5′-O-[phenyl (benzoxy-L-alaninyl)] phosphate]
  selectivity against cancer stem cells compared to the parent compound: preferential targeting of CSCs; also recorded: statistically significantly greater
